From patent US7056931B2, “2-substituted 1,2,3,4-tetrahydroquinolines and derivatives thereof, compositions and methods” (Eli Lilly and Company, priority 2001, dated 2006)

Experiments:
[1] = target: T1, ERbeta receptor (PanVera) (Homo sapiens, UniProt Q92731); test: ER competition binding assay (3H-Estradiol), ERbeta; details: IC50 converted to Ki by Cheng-Prusoff; 3H-Estradiol competition; A = class at 10 microMolar; read-out: Ki (ERβ)
T1 construct: purchased PanVera
Description: (§1) Competition binding assay is run in a buffer containing 50 mM Hepes, pH 7.5, 1.5 mM EDTA, 150 mM NaCl, 10% glycerol, 1 mg/ml ovalbumin and 5 mM DTT, using 0.025 μCi per well ^3H-Estradiol(NEN #NET517 at 118 Ci/mmol, 1 mCi/ml), 10 ng/well ERAlpha or ERbeta receptor (PanVera). Competing compounds are added at 10 different concentrations. Non-specific binding is determined in the presence of 1 μM of 17-B Estradiol. The binding reaction (140 μl) is incubated for 4 hours at room temperature, then 70 μl of cold DCC buffer is added to each reaction (DCC buffer contains per 50 ml of assay buffer, 0.75 g of charcoal (Sigma) and 0.25 g of dextran (Pharmacia)). Plates are mixed 8 minutes on an orbital shaker at 4° C. Plates are then centrifuged at 3,000 rpm at 4° C. for 10 minutes. An aliquot of 120 μl of the-mix is transferred to another 96-well, white flat bottom plate (Costar) and 175 μl of Wallac Optiphase “Hisafe 3” scintillation fluid is added to each well. Plates are sealed and shaken vigorously on an orbital shaker. After an incubation of 2.5 hrs, read plates in a Wallac Microbeta counter. […] The Kd for ^3H-Estradiol is determined by saturation binding to ER alpha and ER beta receptors. The IC50 values for compounds are converted to Ki using Cheng-Prusoff equation and the Kd determined by saturation binding assay.

[2] = test system: Ishikawa human endometrial tumor cells; test: Ishikawa Alkaline Phosphatase Assay; assay type: cell-based; details: for EC50 / IC50: Homo sapiens, Ishikawa; for EC50 / Agonist % Eff: agonist mode; for Agonist % Eff: % efficacy versus the response to Tamoxifen; for % Eff / IC50: antagonist mode; for % Eff: % efficacy versus E2 (1 nM) alone; for IC50: with E2 (1 nM)
Description: Ishikawa Alkaline Phosphatase Assay
Ishikawa human endometrial tumor cells are maintained in MEM (minimum essential medium, with Earle's salts and L-Glutamine, Gibco BRL, Gaithersburg, Md.), supplemented with 10% fetal bovine serum (FBS) (V/V), (Gibco BRL). One day prior to assay, growth media is changed to assay medium, DMEM/F-12 (3:1) (Dulbecco's Modified Eagle Medium: Nutrient Mixture F-12, 3:1 Mixture, phenol red-free, Gibco BRL) supplemented with 5% dextran coated charcoal stripped fetal bovine serum (DCC-FBS) (Hyclone, Logen, Utah), L-Glutamine (2 mM), MEM sodium pyruvate (1 mM), HEPES (N-[2-hydroxyethyl]piperazine-N′-[2-ethanesulfonic acid] 2 mM) all from Gibco BRL). After an overnight incubation, ishikawa cells are rinsed with Dulbecco's
Phosphate Buffered Saline (1×) (D-PBS) without Ca^+2 and Mg^+2 (Gibco BRL), and typsinized by a 3 minute incubation with 0.25% Trypsin/EDTA, phenol red-free (Gibco BRL). Cells are resuspended in assay medium and adjusted to 250,000 cells/ml. Approximately 25,000 cells in a 100 ul media are added to flat-bottom 96 wells microculture plates (Costar 3596) and incubated at 37° C. in a 5% CO2 humidified incubator for 24 hours. The next day, serial dilutions of compounds are prepared in assay medium (at 6 times the final concentration in the assay). The assay is run in dual mode, agonist and antagonist modes. For the agonist mode, plates receive 25 μl/well of assay medium followed by 25 μl/well of diluted compounds (at 6× the final concentrations). For the antagonist mode, plates receive 25 μl/well of 6 nM E2 (β-Estradiol, Sigma, St. Louis, Mo.) followed by 25 μl/well of diluted compounds (at 6× the final concentrations). After an additional 48-hour incubation at 37° C. in a 5% CO2 humidified incubator, media is aspirated from wells and 100 μl fresh assay medium is added to each microculture. Serial dilutions of compounds are prepared and added to the cells as described above. After an additional 72 hour incubation at 37° C. in a 5% CO2 humidified incubator, the assay is quenched by removing media and rinsing plates twice in Dulbecco's Phosphate Buffered Saline (1×) (D-PBS) (Gibco BRL). The plates are dried for 5 min and frozen at −70° C. for at least 1 hour. The plates are then removed from the freezer and allowed to thaw at room temperature. To each well, 100 μl of 1-Step™ PNPP (Pierce Chemical Company, Rockford, Ill.) is added. After a 20-minute incubation, plates are read on a spectophotometer at 405 nm. The data is fitted to a linear interpolation to derive EC50 (for agonist mode) or IC50 (for antagonist mode) values. For the agonist mode, a % efficacy for each compound is calculated versus the response to Tamoxifen. For the antagonist mode, a % efficacy for each compound is calculated versus E2 (1 nM) alone.

[3] = test system: MCF-7 breast adenocarcinoma cells; test: MCF-7 Proliferation Assay; assay type: cell-based; details: antagonist mode, E2 10 pM, 14C-thymidine, B = class at 1 micromolar; for IC50: Homo sapiens, MCF7
Description: MCF-7 Proliferation Assay
MCF-7 breast adenocarcinoma cells (ATCC HTB 22) are maintained in MEM (minimal essential medium, phenol red-free, Gibco BRL) supplemented with 10% fetal bovine serum (FBS) (VN), L-glutamine (2 mM), sodium pyruvate (1 mM), HEPES ((N-[2-hydroxyethyl]piperazine-N′-[2-ethanesulfonic acid]) 10 mM}, non-essential amino acids(0.1 mM)and Penicillin Streptomycin(1×). Seven days prior to assay, MCF-7 cells are switched to assay media which is the same as maintenance medium except supplemented with 10% dextran-coated charcoal-stripped fetal bovine serum (DCC-FBS) assay medium in place of 10% FBS. MCF-7 cells are removed from flasks using 10× Trypsin EDTA (phenol red free, Gibco BRL) and diluted to 1× in (Ca++/Mg++ free HBSS (phenol red-free). Cells are adjusted to 80,000 cells/ml in assay medium. Approximately 8,000 cells (100 μl) are added to each well in 96 well Cytostar T scintillation plates (Amersham) and incubated at 37° C. in a 5% CO2 humidified incubator for 24 hours to allow cell adherence and equilibration after transfer. Serial dilutions of drugs are prepared in assay medium at 4× the final desired concentration). A 50 μl aliquot of drug dilutions (at 4× the final assay concentration) is transferred to duplicate wells followed by 50 μl assay medium for the agonist mode or 50 μl of 40 pM of E2 for the antagonist mode to a final volume of 200 μl. For each of the agonist plates, a basal level (media) and a maximum stimulated level (with 1 μM E2) is determined. For each of the antagonist plates, a basal level (media) and a E2 (10 pM) alone control is determined. After an additional 48 hours at 37° C. in a 5% CO2 humidified incubator, 20 μl of assay medium containing 0.01 μCi of ^14C-thymidine (52 mCi/mmol, […], Amersham) is added to each well. The plates are incubated overnight in the same incubator and then counted on the Wallac Microbeta counter. […] For the agonist mode, an EC50 and percent of maximum E2 stimulation and concentration of maximum stimulation is calculated.

[4] = target: T2, ERAlpha receptor (PanVera) (Homo sapiens, UniProt P03372); test: ER competition binding assay (3H-Estradiol), ERalpha; details: IC50 converted to Ki by Cheng-Prusoff; 3H-Estradiol competition; A = class at 10 microMolar; read-out: Ki (ERα)
T2 construct: purchased PanVera
T2 sequence (P03372 1-595): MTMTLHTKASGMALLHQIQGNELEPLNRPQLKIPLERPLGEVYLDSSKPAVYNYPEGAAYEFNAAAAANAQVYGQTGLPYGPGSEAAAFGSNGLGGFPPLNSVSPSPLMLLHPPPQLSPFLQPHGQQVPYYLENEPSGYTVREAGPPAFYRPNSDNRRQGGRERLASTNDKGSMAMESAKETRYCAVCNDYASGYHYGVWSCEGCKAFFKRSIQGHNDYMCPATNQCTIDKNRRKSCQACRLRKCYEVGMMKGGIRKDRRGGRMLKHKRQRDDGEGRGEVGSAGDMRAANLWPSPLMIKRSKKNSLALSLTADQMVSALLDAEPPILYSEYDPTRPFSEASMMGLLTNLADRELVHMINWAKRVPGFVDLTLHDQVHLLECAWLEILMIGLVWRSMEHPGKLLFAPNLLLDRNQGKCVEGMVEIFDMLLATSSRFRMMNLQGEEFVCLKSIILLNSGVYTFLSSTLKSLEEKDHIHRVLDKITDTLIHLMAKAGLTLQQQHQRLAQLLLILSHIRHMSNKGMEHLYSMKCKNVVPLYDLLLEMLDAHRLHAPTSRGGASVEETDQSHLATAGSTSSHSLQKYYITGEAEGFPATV
Description: as §1

T1 sequence (Q92731 whole entry): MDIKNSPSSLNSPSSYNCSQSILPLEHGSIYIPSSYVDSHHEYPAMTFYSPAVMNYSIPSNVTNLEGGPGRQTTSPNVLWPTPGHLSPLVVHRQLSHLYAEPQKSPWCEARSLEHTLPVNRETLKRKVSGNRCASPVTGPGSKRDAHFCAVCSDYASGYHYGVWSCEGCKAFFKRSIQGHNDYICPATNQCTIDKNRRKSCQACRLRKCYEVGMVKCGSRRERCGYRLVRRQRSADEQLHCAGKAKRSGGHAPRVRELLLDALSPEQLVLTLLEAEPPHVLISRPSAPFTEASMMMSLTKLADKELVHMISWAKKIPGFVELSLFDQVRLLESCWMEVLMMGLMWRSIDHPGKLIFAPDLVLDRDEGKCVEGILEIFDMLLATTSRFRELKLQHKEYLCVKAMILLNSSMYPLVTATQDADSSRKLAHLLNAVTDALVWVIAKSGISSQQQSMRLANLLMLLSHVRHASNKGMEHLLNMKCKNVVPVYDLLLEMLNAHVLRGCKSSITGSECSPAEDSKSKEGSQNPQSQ

Row | SMILES | Ki [1] [nM] | EC50 [2] [nM] | Agonist % Eff [2] [%] | % Eff [2] [%] | IC50 [3] [nM] | Ki [4] [nM] | IC50 [2] [nM] | IC50 (MCF7) [3]
1 | O=C(c1ccc(OCCN2CCCCC2)cc1)N1c2ccc(O)cc2CCC1c1ccc(O)cc1 (stereo not drawn) [Example 3] | 1160 | 239 | 29 | 17 | 989 | 87.8 |  | 
2 | O=C(c1ccc(OCCN2CCCCC2)cc1)N1c2ccc(O)cc2CCC1c1ccccc1 (stereo not drawn) [Example 4] |  | 84.8 | 44 | 47 |  | 28.9 | 667 | 
3 | Oc1ccc(C2CCc3cc(O)ccc3N2Cc2ccc(OCCN3CCCCC3)cc2)cc1 (stereo not drawn) [Example 7, 2-(4-Hydroxy-phenyl)-1-[4-(2-piperidin-1-yl-ethoxy)-benzyl)-1,2,3,4-tetrahydroquinolin-6-ol] |  | 219 | 28 | 17 | 477 | 0.4 |  | 
4 | Oc1ccc2c(c1)CCC(c1ccccc1)N2Cc1ccc(OCCN2CCCCC2)cc1 (stereo not drawn) [Example 8, 2-Phenyl-1-[4-(2-piperidin-1-yl-ethoxy)-benzyl]-1,2,3,4-tetrahydroquinolin-6-ol] | 4.1 | 28.4 | 31 | 63 | 532 | 1.3 | 716 | 
5 | COc1ccc2c(c1)CCC(c1ccccc1)N2C(=O)c1ccc(OCCN2CCCCC2)cc1 (stereo not drawn) [Example 2] |  |  | −5 | 28 |  |  |  | B (B means < 50% inhibition at 1 micromolar)
6 | Oc1cccc(C2CCc3cc(O)ccc3N2Cc2ccc(OCCN3CCCCC3)cc2)c1 (stereo not drawn) [Example 12, 2-(3-Hydroxy-phenyl)-1-[4-(2-piperidin-1-yl-ethoxy)-benzyl]-1,2,3,4-tetrahydro-quinolin-6-ol] | 5.9 | 142 | 29 | 31 | 385 |  | 892 | 
7 | COc1ccc(C2CCc3cc(OC)ccc3N2C(=O)c2ccc(OCCN3CCCCC3)cc2)cc1 (stereo not drawn) [Example 1, [6-Methoxy-2-(4-methoxyphenyl)-3,4-dihydro-2H-quinolin-1-yl]-[4-4-(2-piperidin-1-yl-ethoxy)phenyl]methanone] |  | 22.9 | 18 | 18 |  |  |  | B^† (B means < 50% inhibition at 1 micromolar)
